The conditions of the series: 283.15 K; 101.33 kPa; Liquid; Pycnometric method.

SMILES strings stand for the structures. ± gives the expanded uncertainty stated by the source.

With `CCCCCC(=O)OCC(COC(=O)CCCCC)(COC(=O)CCCCC)COC(=O)CCCCC` [pentaerythritol tetrahexanoate], the mass density (as a rule, the mass of a sample divided by its volume) amounted to 1004.2 ± 1.6 kg/m3.

The values above are taken from the NIST ThermoML archive (doi:10.1021/je800429j).
